Experimental data published in patent US20230105212A1, “BIPHENYL DERIVATIVE INHIBITOR, PREPARATION METHOD THEREFOR AND USE THEREOF” (SHANGHAI HANSOH BIOMEDICAL CO., LTD., priority 2020, published 2023).

Legend:
[1] = target: T1, human PD-1/PD-L1 binding (Homo sapiens, UniProt Q9NZQ7); experiment: Inhibition of human PD-1/PD-L1 binding (TR-FRET/HTRF); conditions: TR-FRET, PD-L1-His and PD-1-Fc; read-out: PD-1/PD-L1 binding IC50
T1 construct: PD-L1-His protein (19 to 238 amino acids) (Abcam #ab167713); purchased Abcam (PD-L1-His); R&D (PD-1-Fc) ab167713; 1086-PD
Procedure, shortened: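 PD-L1-His (aa 19–238, diluted to 10 nM) and PD-1-Fc (aa 25–167, diluted to 20 nM) incubated with compounds (10 μM or 1 μM top, 3-fold, 11 doses) 60 min at room temperature, then anti-6HIS Eu cryptate/anti-human IgG-XL665 added for 3 h RT or overnight 4 °C. HTRF 665/620 nm ratio gave inhibition and IC50.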

[2] = target: T2, PD-L1 protein on the surface of MC38-hPDL1 tumor cells (Homo sapiens, UniProt Q9NZQ7); experiment: Induction of endocytosis of PD-L1 on the surface of tumor cells (flow cytometry); assay type: cell-based; conditions: 16 hours incubation; for Emax: MC38-hPDL1 cells, read-out: MC38 maximum endocytosis rate; for IC50: inducing endocytosis of PD-L1, MC38-hPDL1 cells, read-out: MC38 IC50
T2 construct: expressed in transfected cells; host or cells: MC38-hPDL1 (mouse colon cancer cells)
Procedure, shortened: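 MC38-hPDL1 mouse colon cancer cells overexpressing human PD-L1 were exposed to compound dilutions for 16 h at 37 °C. Surface PD-L1 was then stained with PE anti-human CD274 for 30 min at room temperature and measured by flow cytometry. Endocytosis rate versus concentration was fitted by nonlinear regression to give IC50.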

[3] = target: T3, human PD-L1 protein (Homo sapiens, UniProt Q9NZQ7); experiment: Thermal shift: melting temperature of PD-L1 protein; assay type: binding; conditions: compound 10 μM, PD-L1 protein 2 μM, Tm minus DMSO vehicle control; read-out: ΔTm (° C.)
T3 construct: purchased Acro Biosystems PD1-H5229
Method: Test Embodiment 4. Test of Combination of the Compounds of the Present Disclosure to Improve the Stability (Melting Temperature) of PD-L1 Protein Experimental purpose: To test the ability of compounds to enhance the stability of PD-L1 protein and increase the melting temperature of the protein. Experimental method: […] A solution containing […] HEPES, SYPRO Orange, and 150 mM NaCl was prepared as experimental buffer, and human PD-L1 protein was added at a final concentration of 2 μM. […] PCR tube was put into the PCR machine, and the melt curve function was selected to detect the melting temperature of PD-L1 protein in different treatment groups (heated from 25° C. to 95° C., 0.03° C./s). The experimental data file of the PCR instrument was imported into the thermal shift software to obtain the melting temperature (Tm) of each treatment group, and the Tm of the DMSO vehicle control group was subtracted to obtain the change value (ΔTm) of the melting temperature, as shown in the following table: […]

T3 sequence (Q9NZQ7 19-238 limits assumed): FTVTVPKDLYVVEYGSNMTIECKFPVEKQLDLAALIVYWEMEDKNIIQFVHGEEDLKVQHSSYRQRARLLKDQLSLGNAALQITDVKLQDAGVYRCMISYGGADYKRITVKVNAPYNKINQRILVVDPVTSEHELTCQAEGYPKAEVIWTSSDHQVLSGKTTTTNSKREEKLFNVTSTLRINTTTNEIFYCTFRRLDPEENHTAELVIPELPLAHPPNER
T1 sequence (Q9NZQ7 19-238): as the sequence (Q9NZQ7 19-238 limits assumed) above
T2 sequence (Q9NZQ7 19-290): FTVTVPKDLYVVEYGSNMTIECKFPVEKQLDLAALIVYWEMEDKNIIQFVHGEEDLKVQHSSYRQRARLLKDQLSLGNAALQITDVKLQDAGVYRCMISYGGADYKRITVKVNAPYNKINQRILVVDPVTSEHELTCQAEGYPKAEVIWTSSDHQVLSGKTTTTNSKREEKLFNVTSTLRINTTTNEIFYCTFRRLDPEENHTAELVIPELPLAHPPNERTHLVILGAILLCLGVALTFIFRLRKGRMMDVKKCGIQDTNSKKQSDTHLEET

Row | SMILES | IC50 [1] [nM] | Emax [2] [%] | IC50 [2] [nM] | ΔTm at 10 µM [3] [°C]
1 | COc1nc(-c2cccc(-c3cccc(NC(=O)c4nc5c(n4C)CCN(C)C5)c3Cl)c2Cl)ccc1CN1CC2(CC(O)C2)C1 [Embodiment 185, N-(2,2′-Dichloro-3′-(5-((6-hydroxy-2-azaspiro[3.3]heptan-2-yl)methyl)-6-methoxypyridin-2-yl)-[1,1′-biphenyl]-3-yl)-1,5-dimethyl-4,5,6,7-tetrahydro-1H-imidazo[4,5-c]pyridine-2-carboxamide] | 5.3 | 97 | 0.7 | 20.9
2 | COc1nc(-c2cccc(-c3cccc(NC(=O)c4nc5c(n4C)CCN(C)C5)c3Cl)c2Cl)ccc1CN1CC2(C1)CN(C(=O)C(F)F)C2 [Embodiment 190, N-(2,2′-Dichloro-3′-(5-((6-(2,2-difluoroacetyl)-2,6-diazaspiro[3.3]heptan-2-yl)methyl)-6-methoxypyridin-2-yl)-[1,1′-biphenyl]-3-yl)-1,5-dimethyl-4,5,6,7-tetrahydro-1H-imidazo[4,5-c]pyridine-2-carboxamide] | 8.5 | 97 | 0.8 | 14
3 | COc1nc(-c2cccc(-c3cccc(NC(=O)c4nc5c(n4C)CCN(C)C5)c3Cl)c2Cl)ccc1CN1CC2(C1)CN(C(=O)CC#N)C2 [Embodiment 191, N-(2,2′-Dichloro-3′-(5-((6-(2-cyanoacetyl)-2,6-diazaspiro[3.3]heptan-2-yl)methyl)-6-methoxypyridin-2-yl)-[1,1′-biphenyl]-3-yl)-1,5-dimethyl-4,5,6,7-tetrahydro-1H-imidazo[4,5-c]pyridine-2-carboxamide] | 4.8 | 97 | – | 11.7
4 | COc1nc(-c2cccc(-c3cccc(NC(=O)c4nc5c(n4C)CCN(C)C5)c3Cl)c2Cl)ccc1CN1CC2(CCN(C(C)=O)CC2)C1 [Embodiment 194, N-(3′-(5-((7-Acetyl-2,7-diazaspiro[3.5]nonan-2-yl)methyl)-6-methoxypyridin-2-yl)-2,2′-dichloro-[1,1′-biphenyl]-3-yl)-1,5-dimethyl-4,5,6,7-tetrahydro-1H-imidazo[4,5-c]pyridine-2-carboxamide] | 7.9 | 96 | – | 13.2
5 | COc1nc(-c2cccc(-c3cccc(NC(=O)c4nc5c(n4C)CCN(C)C5)c3Cl)c2Cl)ccc1CN1CCN(C(=O)CC#N)CC1 [Embodiment 198, N-(2,2′-Dichloro-3′-(5-((4-(2-cyanoacetyl)piperazin-1-yl)methyl)-6-methoxypyridin-2-yl)-[1,1′-biphenyl]-3-yl)-1,5-dimethyl-4,5,6,7-tetrahydro-1H-imidazo[4,5-c]pyridine-2-carboxamide] | 9.6 | 94 | – | 12
6 | COc1nc(-c2cccc(-c3cccc(NC(=O)c4nc5c(n4C)CCN(C)C5)c3Cl)c2Cl)ccc1CN1C[C@@H]2C[C@H]1CN2C(C)=O [Embodiment 205, N-(3′-(5-(((1S,4S)-5-Acetyl-2,5-diazabicyclo[2.2.1]heptan-2-yl)methyl)-6-methoxypyridin-2-yl)-2,2′-dichloro-[1,1′-biphenyl]-3-yl)-1,5-dimethyl-4,5,6,7-tetrahydro-1H-imidazo[4,5-c]pyridine-2-carboxamide] | 8.8 | 96 | – | 13.3
7 | COc1nc(-c2cccc(-c3cccc(NC(=O)c4nc5c(n4C)CCN(C)C5)c3Cl)c2Cl)ccc1CN1C2CC1CN(C(C)=O)C2 [Embodiment 209, N-(3′-(5-((3-Acetyl-3,6-diazabicyclo[3.1.1]heptan-6-yl)methyl)-6-methoxypyridin-2-yl)-2,2′-dichloro-[1,1′-biphenyl]-3-yl)-1,5-dimethyl-4,5,6,7-tetrahydro-1H-imidazo[4,5-c]pyridine-2-carboxamide] | 7.1 | 90 | – | 10.7
8 | COc1nc(-c2cccc(-c3cccc(NC(=O)c4nc5c(n4C)CCN(C)C5)c3Cl)c2Cl)ccc1CNC1CCOCC1C(=O)O (centres unmarked) [Embodiment 214, 4-(((6-(2,2′-Dichloro-3′-(1,5-dimethyl-4,5,6,7-tetrahydro-1H-imidazo[4,5-c]pyridin-2-carboxamido)-[1,1′-biphenyl]-3-yl)-2-methoxypyridin-3-yl)methyl)amino)tetrahydro-2H-pyran-3-carboxylic Acid] | 5.3 | 93 | – | 10.2
9 | COc1nc(-c2cccc(-c3cccc(NC(=O)c4nc5c(n4C)CCN(C)C5)c3Cl)c2Cl)ncc1CNCCO [Embodiment 229, N-(2,2′-Dichloro-3′-(5-(((2-hydroxyethyl)amino)methyl)-4-methoxypyrimidin-2-yl)-[1,1′-biphenyl]-3-yl)-1,5-dimethyl-4,5,6,7-tetrahydro-1H-imidazo[4,5-c]pyridine-2-carboxamide] | 3.2 | 95 | – | 12
10 | COc1nc(-c2cccc(-c3cccc(NC(=O)c4nc5c(n4C)CCN(C)C5)c3Cl)c2Cl)ccc1CN1CCCC[C@H]1C(=O)O [Embodiment 230, (S)-1-((6-(2,2′-Dichloro-3′-(1,5-dimethyl-4,5,6,7-tetrahydro-1H-imidazo[4,5-c]pyridine-2-carboxamido)-[1,1′-biphenyl]-3-yl)-2-methoxypyridin-3-yl)methyl)piperidine-2-carboxylic Acid] | 1.8 | 95 | – | 11.3
11 | COc1nc(-c2cccc(-c3cccc(NC(=O)c4nc5c(n4C)CCN(C)C5)c3Cl)c2Cl)ccc1CN[C@@H](CO)C(=O)O [Embodiment 232, ((6-(2,2′-Dichloro-3′-(1,5-dimethyl-4,5,6,7-tetrahydro-1H-imidazo[4,5-c]pyridine-2-carboxamido)-[1,1′-biphenyl]-3-yl)-2-methoxypyridin-3-yl)methyl)-L-serine] | 1.7 | 94 | – | 11.1
12 | CCn1c(C(=O)Nc2cccc(-c3cccc(-c4ccc(CN5CC6(COC6)C5)c(OC)n4)c3Cl)c2Cl)nc2c1CCN(C)C2 [Embodiment 237, N-(3′-(5-((2-Oxa-6-azaspiro[3.3]heptan-6-yl)methyl)-6-methoxypyridin-2-yl)-2,2′-dichloro-[1,1′-biphenyl]-3-yl)-1-ethyl-5-methyl-4,5,6,7-tetrahydro-1H-imidazo[4,5-c]pyridine-2-carboxamide] | 5.2 | 94 | – | 11.6
13 | CCn1c(C(=O)Nc2cccc(-c3cccc(-c4ccc(CN5CC6(C5)CN(C(C)=O)C6)c(OC)n4)c3Cl)c2Cl)nc2c1CCN(C)C2 [Embodiment 238, N-(3′-(5-((6-Acetyl-2,6-diazaspiro[3.3]heptan-2-yl)methyl)-6-methoxypyridin-2-yl)-2,2′-dichloro-[1,1′-biphenyl]-3-yl)-1-ethyl-5-methyl-4,5,6,7-tetrahydro-1H-imidazo[4,5-c]pyridine-2-carboxamide] | 4.1 | 95 | – | 10.8
14 | CCn1c(C(=O)Nc2cccc(-c3cccc(-c4ccc(CN5CC(CO)C5)c(OC)n4)c3Cl)c2Cl)nc2c1CCN(C)C2 [Embodiment 239, N-(2,2′-Dichloro-3′-(5-((3-(hydroxymethyl)azetidin-1-yl)methyl)-6-methoxypyridin-2-yl)-[1,1′-biphenyl]-3-yl)-1-ethyl-5-methyl-4,5,6,7-tetrahydro-1H-imidazo[4,5-c]pyridine-2-carboxamide] | 4.9 | 95 | – | 11.9
15 | CCn1c(C(=O)Nc2cccc(-c3cccc(-c4ccc(CN5CC(C(=O)O)C5)c(OC)n4)c3Cl)c2Cl)nc2c1CCN(C)C2 [Embodiment 240, 1-((6-(2,2′-Dichloro-3′-(1-ethyl-5-methyl-4,5,6,7-tetrahydro-1H-imidazo[4,5-c]pyridine-2-carboxamido)-[1,1′-biphenyl]-3-yl)-2-methoxypyridin-3-yl)methyl)azetidine-3-carboxylic Acid] | 2.8 | 97 | – | 13
16 | COc1nc(-c2cccc(-c3cccc(NC(=O)c4nc5c(n4C4CC4)CCN(C)C5)c3Cl)c2Cl)ccc1CN1CC(CO)C1 [Embodiment 245, 1-Cyclopropyl-N-(2,2′-dichloro-3′-(5-((3-(hydroxymethyl)azetidin-1-yl)methyl)-6-methoxypyridin-2-yl)-[1,1′-biphenyl]-3-yl)-5-methyl-4,5,6,7-tetrahydro-1H-imidazo[4,5-c]pyridine-2-carboxamide] | 4.4 | 93 | – | 10.2
